Source: patent US20240182445A1 (ONO PHARMACEUTICAL CO., LTD., priority 2019, published 2024)

Molecular target: T1, human TREK-1 (Homo sapiens, UniProt O95069)
T1 construct: expressed in transfected cells
T1 sequence (O95069 1-426): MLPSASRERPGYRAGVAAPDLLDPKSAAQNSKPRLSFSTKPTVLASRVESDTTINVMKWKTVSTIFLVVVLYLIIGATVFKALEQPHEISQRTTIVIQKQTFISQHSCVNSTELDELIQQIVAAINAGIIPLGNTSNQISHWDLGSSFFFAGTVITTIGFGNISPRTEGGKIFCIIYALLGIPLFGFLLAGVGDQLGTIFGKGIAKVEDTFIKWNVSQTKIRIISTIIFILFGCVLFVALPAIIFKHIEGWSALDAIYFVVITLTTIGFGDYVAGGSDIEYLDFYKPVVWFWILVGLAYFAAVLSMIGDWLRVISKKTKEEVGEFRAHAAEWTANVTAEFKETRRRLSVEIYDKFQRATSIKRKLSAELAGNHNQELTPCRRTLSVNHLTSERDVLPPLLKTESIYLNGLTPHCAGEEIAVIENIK
Assay: TREK-1 Thallium (Tl+) flux assay, Method 1
Type: cell-based
Settings: TREK-1 Thallium (Tl+) flux assay; no *^12 (Method 2) mark on these rows
Procedure, shortened: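 Readout: Thallos fluorescence ratio, taken 25 s post-thallium relative to the pre-thallium baseline average, then converted to % inhibition. Cells were CHO-K1 stably expressing human TREK-1, dye-loaded and exposed to test compound (vehicle 0.3% DMSO) for 10 min prior to thallium stimulation.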

SMILES: Cc1cc(C#Cc2ccc(F)cc2)cnc1NC(=O)c1c(Cl)cnn1CC1CCCN(C(=O)C2CC2C)C1 (centres unmarked) [Compound 264, 4-chloro-N-(5-((4-fluorophenyl)ethynyl)-3-methylpyridin-2-yl)-1-((1-(2-methylcyclopropane-1-carbonyl)piperidin-3-yl)methyl)-1H-pyrazole-5-carboxamide]
- IC50: 430 nM

SMILES: Cc1cc(C#Cc2ccccc2)cnc1NC(=O)c1c(Cl)cnn1CC1CCN(C(=O)OC(C)(C)C)CC1C (centres unmarked) [Compound 265, tert-butyl 4-((4-chloro-5-((3-methyl-5-(phenylethynyl)pyridin-2-yl)carbamoyl)-1H-pyrazol-1-yl)methyl)-3-methylpiperidine-1-carboxylate]
- IC50: 430 nM

SMILES: N#CC1CC(n2ncc(Cl)c2C(=O)Nc2ncc(C#Cc3ccccc3)cc2F)C1 (centres unmarked) [Compound 266, 4-chloro-1-(3-cyanocyclobutyl)-N-(3-fluoro-3-(phenylethynyl)pyridin-2-yl)-1H-pyrazole-5-carboxamide]
- IC50: 440 nM

SMILES: Cc1cc(C#Cc2ccccc2)cnc1NC(=O)c1c(Cl)cnn1CC1(C#N)CC1 [Compound 267, 4-chloro-1-((1-cyanocyclopropyl)methyl)-N-(3-methyl-5-(phenylethynyl)pyridin-2-yl)-1H-pyrazole-5-carboxamide]
- IC50: 450 nM

SMILES: Cc1cc(C#Cc2ccccc2)cnc1NC(=O)c1c(Cl)cnn1C1CCN(C(=O)C(F)(F)F)CC1 [Compound 268, 4-chloro-N-[3-methyl-5-(2-phenylethynyl)-2-pyridyl]-2-[1-(2,2,2-trifluoroacetyl)-4-piperidyl]pyrazole-3-carboxamide]
- IC50: 450 nM

SMILES: Cc1cc(C#Cc2ccc(F)cc2)cnc1NC(=O)c1c(Cl)cnn1CC1(C#N)CCN(C(=O)OC(C)(C)C)CC1 [Compound 269, tert-butyl 4-((4-chloro-5-((5-((4-fluorophenyl)ethynyl)-3-methylpyridin-2-yl)carbamoyl)-1H-pyrazol-1-yl)methyl)-4-cyanopiperidine-1-carboxylate]
- IC50: 450 nM

SMILES: Cn1ncc2cc(-n3ncc(Cl)c3C(=O)Nc3ncc(C#Cc4ccccc4)cc3F)ccc21 [Compound 270, 4-chloro-N-(3-fluoro-5-(phenylethynyl)pyridin-2-yl)-1-(1-methyl-1H-indazole-5-yl)-1H-pyrazole-5-carboxamide]
- IC50: 460 nM

SMILES: Cc1cc(C#Cc2ccc(F)cc2)cnc1NC(=O)c1c(Cl)cnn1CC1CCCN(C(=O)C2CC2)C1 (centres unmarked) [Compound 271, 4-chloro-1-((1-(cyclopropanecarbonyl)piperidin-3-yl)methyl)-N-(5-((4-fluorophenyl)ethynyl)-3-methylpyridin-2-yl)-1H-pyrazole-5-carboxamide]
- IC50: 460 nM

SMILES: Cc1cc(C#Cc2ccc(F)cc2)cnc1NC(=O)c1c(Cl)cnn1CC1CCCN(C(=O)C(C)C)C1 (centres unmarked) [Compound 272, 4-chloro-N-(5-((4-fluorophenyl)ethynyl)-3-methylpyridin-2-yl)-1-((1-isobutyrylpiperidin-3-yl)methyl)-1H-pyrazole-5-carboxamide]
- IC50: 460 nM

SMILES: Cc1cc(C#Cc2ccccc2)cnc1NC(=O)c1c(Cl)cnn1CC1CN(C(=O)C2CC2)C1 [Compound 274, 4-chloro-1-((1-(cyclopropanecarbonyl)azetidin-3-yl)methyl)-N-(3-methyl-5-(phenylethynyl)pyridin-2-yl)-1H-pyrazole-5-carboxamide]
- IC50: 470 nM

SMILES: O=C(Nc1ncc(C#Cc2ccccc2)cc1F)c1c(Cl)cnn1[C@H]1CCOC1 [Compound 275, (S)-4-chloro-N-(3-fluoro-5-(phenylethynyl)pyridin-2-yl)-1-(tetrahydrofuran-3-yl)-1H-pyrazole-5-carboxamide]
- IC50: 480 nM

SMILES: Cc1cc(C#Cc2ccccc2)cnc1NC(=O)c1c(Cl)cnn1CC(C)(C)C#N [Compound 276, 4-chloro-1-(2-cyano-2-methylpropyl)-N-(3-methyl-5-(phenylethynyl)pyridin-2-yl)-1H-pyrazole-5-carboxamide]
- IC50: 480 nM

SMILES: Cc1cc(C#Cc2ccccc2)cnc1NC(=O)c1c(Cl)cnn1C1CCCN(C(=O)OC(C)(C)C)CC1 (centres unmarked) [Compound 277, tert-butyl 4-(4-chloro-5-((3-methyl-5-(phenylethynyl)pyridin-2-yl)carbamoyl)-1H-pyrazol-1-yl)azepane-1-carboxylate]
- IC50: 480 nM

SMILES: Cc1cc(C#Cc2ccccc2)cnc1NC(=O)c1c(Cl)cnn1CC1CC1 [Compound 278, 4-chloro-1-(cyclopropylmethyl)-N-(3-methyl-5-(phenylethynyl)pyridin-2-yl)-1H-pyrazole-5-carboxamide]
- IC50: 490 nM

SMILES: CC1(Cn2ncc(Cl)c2C(=O)Nc2ncc(C#Cc3ccccc3)cc2F)CCCO1 (centres unmarked) [Compound 279, 4-chloro-N-(3-fluoro-5-(phenylethynyl)pyridin-2-yl)-1-((2-methyltetrahydrofuran-2-yl)methyl)-1H-pyrazole-5-carboxamide]
- IC50: 490 nM

SMILES: Cc1cc(C#Cc2ccccc2)cnc1NC(=O)c1c(Cl)cnn1CC1CCCOC1 (centres unmarked) [Compound 280, 4-chloro-N-(3-methyl-5-(phenylethynyl)pyridin-2-yl)-1-((tetrahydro-2H-pyran-3-yl)methyl)-1H-pyrazole-5-carboxamide]
- IC50: 490 nM

SMILES: Cc1cc(C#Cc2ccccc2)cnc1NC(=O)c1c(Cl)cnn1CC1COCC1C (centres unmarked) [Compound 281, 4-chloro-N-(3-methyl-5-(phenylethynyl)pyridin-2-yl)-1-((4-methyltetrahydrofuran-3-yl)methyl)-1H-pyrazole-5-carboxamide]
- IC50: 490 nM

SMILES: Cc1cc(C#Cc2ccccc2)cnc1NC(=O)c1c(Cl)cnn1[C@H]1C[C@@H]2CN(C(=O)C3CC3)C[C@@H]2C1 [Compound 282, 4-chloro-1-[(3aR,5s,6aS)-2-(cyclopropanecarbonyl)octahydro-cyclopenta[c]pyrrol-5-yl]-N-[3-methyl-5-(phenylethynyl)pyridin-2-yl]-1H-pyrazole-5-carboxamide]
- IC50: 490 nM

SMILES: Cc1cc(C#Cc2ccccc2)cnc1NC(=O)c1c(Cl)cnn1-c1ccc2c(c1)OCO2 [Compound 283, 1-(benzol[d][1,3]dioxol-5-yl)-4-chloro-N-(3-methyl-5-(phenylethynyl)pyridin-2-yl)-1H-pyrazole-5-carboxamide]
- IC50: 490 nM

SMILES: Cc1cc(C#Cc2ccc(F)cc2)cnc1NC(=O)c1c(Cl)cnn1CC1CCN(C(=O)C(C)C)CC1C (centres unmarked) [Compound 284, 4-chloro-N-(5-((4-fluorophenyl)ethynyl)-3-methylpyridin-2-yl)-1-((1-isobutyryl-3-methylpiperidin-4-yl)methyl)-1H-pyrazole-5-carboxamide]
- IC50: 490 nM

SMILES: Cc1cc(C#Cc2ccccc2)cc(F)c1NC(=O)c1c(Cl)cnn1C[C@H]1COCCO1 [Compound 285, (S)-1-((1,4-dioxan-2-yl)methyl)-4-chloro-N-(2-fluoro-6-methyl-4-(phenylethynyl)phenyl)-1H-pyrazole-5-carboxamide]
- IC50: 500 nM

SMILES: Cc1cc(C#Cc2cccc(F)c2)cnc1NC(=O)c1c(Cl)cnn1C[C@H]1COCCO1 [Compound 286, (S)-1-((1,4-dioxan-2-yl)methyl)-4-chloro-N-(5-((3-fluorophenyl)ethynyl)-3-methylpyridin-2-yl)-1H-pyrazole-5-carboxamide]
- IC50: 500 nM

SMILES: Cc1cc(C#Cc2ccccc2)cnc1NC(=O)c1c(Cl)cnn1C1CN(C(=O)OC(C)(C)C)C1 [Compound 287, tert-butyl 3-(4-chloro-5-((3-methyl-5-(phenylethynyl)pyridin-2-yl)carbamoyl)-1H-pyrazol-1-yl)azetidine-1-carboxylate]
- IC50: 500 nM

SMILES: CC(C)C(=O)N1CCC[C@H](Cn2ncc(Cl)c2C(=O)Nc2ncc(C#Cc3ccccc3)cc2F)C1 [Compound 288, (S)-4-chloro-N-(3-fluoro-5-(phenylethynyl)pyridin-2-yl)-1-((1-isobutyrylpiperidin-3-yl)methyl)-1H-pyrazole-5-carboxamide]
- IC50: 500 nM

SMILES: Cc1cc(C#Cc2ccccc2)cnc1NC(=O)c1c(Cl)cnn1C1CCC(C#N)C1 (centres unmarked) [Compound 289, 4-chloro-1-(3-cyanocyclopentyl)-N-(3-methyl-5-(phenylethynyl)pyridin-2-yl)-1H-pyrazole-5-carboxamide]
- IC50: 510 nM

SMILES: CC(C)(C)OC(=O)N1CCC(CCn2ncc(Cl)c2C(=O)Nc2ncc(C#Cc3ccccc3)cc2F)CC1 [Compound 290, tert-butyl 4-(2-(4-chloro-5-((3-fluoro-5-(phenylethynyl)pyridin-2-yl)carbamoyl)-1H-pyrazol-1-yl)ethyl)piperidine-1-carboxylate]
- IC50: 510 nM

SMILES: Cc1cc(C#Cc2ccccc2)cnc1NC(=O)c1c(Cl)cnn1[C@@H]1CC[C@@H](NC(=O)OC(C)(C)C)C1 [Compound 291, tert-butyl ((1R,3R)-3-(4-chloro-5-((3-methyl-5-(phenylethynyl)pyridin-2-yl)carbamoyl)-1H-pyrazol-1-yl)cyclopentyl)carbamate]
- IC50: 520 nM

SMILES: Cc1cc(C#Cc2ccccc2)cnc1NC(=O)c1c(Cl)cnn1[C@H]1C[C@H](NC(=O)OC(C)(C)C)C1 [Compound 292, tert-butyl (trans-3-(4-chloro-5-((3-methyl-5-(phenylethynyl)pyridin-2-yl)carbamoyl)-1H-pyrazol-1-yl)cyclobutyl)carbamate]
- IC50: 520 nM

SMILES: Cc1cc(C#Cc2ccc(F)cc2)cnc1NC(=O)c1c(Cl)cnn1C[C@@H]1CCN(C(=O)C(C)C)C[C@H]1F [Compound 293, 4-chloro-1-(((3S,4S)-3-fluoro-1-isobutyrylpiperidin-4-yl)methyl)-N-(5-((4-fluorophenyl)ethynyl)-3-methylpyridin-2-yl)-1H-pyrazole-5-carboxamide]
- IC50: 520 nM
